Source: patent publication US9023859B2, “Composition and method for treating or preventing skeletal muscle fibrosis” (State of Israel, Ministry of Agriculture, Agricultural …, priority 2007, dated 2015)

Experiments:
Mdx mice [1] = assay: Collagen content (Sirius red) and collagen α1(I) gene expression (in situ hybridization) in quadriceps and tibialis muscles; format: in vivo; details: I.P. 3 μg/mouse every other day, 4 weeks from 5 weeks of age
Protocol: Mdx mice were treated either with halofuginone by I.P. injection every other day (3 μg/mouse) starting at 5 weeks of age for 4 weeks, or with saline vehicle. C57B mice were used as controls. At the end of the 4 week period, tibialis anterior (fast) and quadriceps (slow) muscles were removed for evaluation of fibrosis by Sirius red staining for collagen content, and by in situ hybridization of collagen α1(I) gene expression.

Mdx mice [2] = assay: Effect on fibrosis (collagen by Sirius red, image analysis) in diaphragm, gastrochnemius and tibialis muscles; format: in vivo; details: I.P. 5 μg/mouse every other day; for reduction of collagen levels: diaphragm; for reduction of collagen content: gastrochnemius
Protocol: Halofuginone was administered by I.P injection to mdx mice (n=7) from 3 weeks of age every other day at a concentration of 5 μg/mouse. The wild type (C57/BL) and mdx mice without halofuginone served as controls. At the age of 7 and 11 weeks the mice were sacrificed and the diaphragm, gastrochnemius and the tibialis were fixed for histology and samples were frozen for further analysis. Sections were stained for collagen by Sirius red and with methyl green as a counter stain. Image analysis using the Image Pro software was performed for statistical evaluation of the effect of halofuginone on collagen content. For the image analysis, images were taken from 3 animals/group and 4 replicates from each animal/tissue. The results are the ratio of red (R) to green color (G).

[3] = tested on: myostatin gene expression; assay: Myostatin gene expression in fibrotic liver (preliminary experiments); format: in vivo
Mdx mice [4] = assay: Effect on muscle regeneration (diaphragm central nuclei counting); format: in vivo, mouse; details: 5 μg or 7.5 μg for 1 or 2 months from 3 weeks of age; dose-dependent
Protocol: Mdx mice were treated with halofuginone 5 μg or 7.5 μg for 1 or 2 months starting at age of 3 weeks. The untreated mdx mice served as controls. At the end of the experiment, the diaphragms were taken for hematoxyline & eosin staining before central nuclei counting. The results are the mean±SE of 20 photos taken from 3 different mice. Each photo contained approximately 120 fibers

For `O=C(CC1NCCC[C@H]1O)Cn1cnc2cc(Br)c(Cl)cc2c1=O` (stereo in doubt) [halofuginone, 7-bromo-6-chloro-3-[3-(3-hydroxy-2-piperidinyl)-2-oxopropyl]-4(3H)-quinazolinone], the “increase in amount of collagen fibers in mdx muscles” value (Mdx mice [1]; Sirius red) was “almost completely prevented”, the “increase in expression of collagen α1(I) gene in mdx muscles” value (Mdx mice [1]; in situ hybridization) was “almost completely prevented” and the “reduction of collagen levels” value (Mdx mice [2]; 7 weeks of age (4 weeks of treatment)) was 25%. The “reduction of collagen levels” value (Mdx mice [2]; 11 weeks of age (8 weeks of treatment)) was 53%, the “reduction of collagen content” value (Mdx mice [2]; 7 weeks of age) was 25% and the “reduction of collagen content” value (Mdx mice [2]; 11 weeks of age) was 33%. For the same compound, the “effect on collagen content” value (Mdx mice [2]; tibialis muscle) was “No effect”, the myostatin gene expression [3] was “inhibition” and the “number of diaphragm central nuclei” value (Mdx mice [4]) was “major reduction”.
